Laboratory results from US9738614B2, “Malignant and non-malignant disease treatment with Ras antagonists” (PISCES THERAPEUTICS, LLC, priority 2011, dated 2017).

Key:
Format in all cases: cell-based
U87MG cells = experiment: Cell proliferation assay for U87MG cells
Description: (§1) The adult glioblastoma cell line U87MG was obtained from a commercial source (ATCC). The pancreatic cancer cell line PANC-1 was obtained from a local laboratory (Indiana University). Both lines were grown in Iscove's Modified Dulbecco's Medium with 10% fetal bovine serum (FBS) at 37° C. and 5% CO2.
(§2) Compounds (1), (2), (3), (4), and (5), which are shown and described above, were each dissolved in ethanol at 10 mg/mL. A measured portion of the solution was pipetted into a microcentrifuge tube. Then, the ethanol was evaporated from each tube using a SpeedVac®, leaving just the compound in the tube. The appropriate amount of chloroform was added to the tube to produce a 0.1 M concentration. The solutions were placed on ice and in the dark so they could be pipetted into 10- and 20-μL aliquots in 1.5 mL microcentrifuge tubes. The solutions were frozen at […] with lids closed tightly and the tubes covered with foil.
(§3) Prior to treating the cells, a tube of the test compound was removed from the freezer and placed under a biosafety hood to evaporate the chloroform in the tubes. Then, dimethyl sulfoxide (DMSO) was added to the tubes to make the correct concentration to use in the experiment (0.1 M stock). The tubes were vortexed, and warm media with 10% FBS was slowly added to make the correct working concentrations to be used in the experiment. The compounds were directly added to each well for treatment.
(§4) U87MG cells were seeded in a 24-well plate, 5000 cells per well, and incubated overnight at 37° C. in serum-free media. The next day they were treated in triplicate with 50 and 100 μM of each test compound (1), (2), (3), (4), and (5) and the reference compound FTS. After five days, the cells were trypsinized (0.5%), stained with trypan blue, and counted to determine the cell number per well. The half-maximal inhibitory concentration (IC50) values were calculated using Multiplex Reader-Fit software made by MiraiBio Group, Hitachi Solutions America, Ltd. In a typical experiment, the control wells averaged 138,000 cells. The results are presented graphically in FIG. 1. The test compounds at 50 μM allowed the following U87MG cell proliferation compared to control: compound (1)—37%, compound (2)—18%, compound (3)—10%, compound (4)—40%, and compound (5)—0%. The reference compound FTS at 50 μM allowed 7% cell proliferation compared to control.
To further evaluate compounds (3) and (5), which inhibited the most cell growth in FIG. 1, more U87MG cells were seeded in 24-well plates, 5000 cells per well, and incubated overnight at 37° C. in serum-free media. The cells were treated the next morning in media with 5% serum in triplicate with standard concentrations of 6.25, 12.5, 25, and 50 μM of each test compound (3) and (5) and the reference compound FTS. After five days of treatment, the cells were trypsinized (0.5%) and then stained with trypan blue. Cells were counted to determine the number of cells per well. Again, the IC50 values were calculated using Multiplex Reader-Fit software made by MiraiBio Group, Hitachi Solutions America, Ltd. In a typical experiment, the control wells averaged 56,000 cells. The results are presented graphically in FIG. 2. The test compounds at 25 μM allowed the following U87MG cell proliferation compared to control: compound (3)—69% and compound (5)—0%. The reference compound FTS at 25 μM allowed over 50% cell proliferation compared to control.
Since the doses of compound (5) used above killed all of the cells, the dose curve was set up again using even lower doses of compound (5). U87MG cells were seeded in 24-well plates, 5000 cells per well, and incubated overnight at 37° C. in serum-free media. The cells were treated in triplicate with 6.25, 12.5, 25, and 50 μM of the reference compound FTS and 0.3125, 0.625, 1.25, 2.5, and 5.0 μM of the test compound (5) in media with 5% serum for five days. Then, the cells were trypsinized (0.5%) and stained with trypan blue, and the cell number per each well was determined. […]

PANC-1 cells = experiment: Cell proliferation assay for PANC-1 cells; conditions: 1.25 μM, media with 5% serum, five days (FIG. 3)
Description: as §1, §2, §3
The cells were treated in triplicate with standard concentrations of 6.25, 12.5, 25, 50, and 100 μM of each test compound (3) and (5) and the reference compound FTS and, when needed, concentrations of 0.625, 1.25, 2.5 and 5.0 μM in media with 5% serum for five days. Then, the cells were stained with trypan blue, and the cell number per each well was determined. Again, the IC50 values were calculated using Multiplex Reader-Fit software made by MiraiBio Group, Hitachi Solutions America, Ltd. In a typical experiment, the control wells averaged 32,500 cells. The results are presented graphically in FIG. 3. […]

[1] = test system: hematopoietic progenitor cells (cord blood low density cells); experiment: Human hematopoietic progenitor cell toxicity (colony assay); conditions: 12 days; 25 and 2.5 μM for compound (3), 2.5 and 0.25 μM for compound (5)
Description: Cord blood low density cells were plated at 1×10^5 cells per plate in 1 mL complete methylcellulose in the presence of each test compound (3) and (5) and incubated for 12 days in a CO2 incubator. Colony-forming unit-granulocyte (CFU-GM), burst-forming unit-erythroid (BFU-E), and mixed colonies were counted under an inverted microscope. […] The test compounds were not toxic to the hematopoietic progenitor cells.

JW16 cells = experiment: IC50 assay with JW16 mouse MPNST cells; conditions: 0.5 to 20 μM, read-out: half-maximal effect on viability
Description: as §4
Mouse models of NF-1 related MPNST have been made. Cells from two such mice, JW16 and JW19, have been isolated and propagated. The JW16 and JW19 cells were subjected to IC50 assays similar to Example 6 above.

[2] = test system: primary human lung fibroblasts; experiment: Inhibition of TGF-β induced myofibroblast formation (α-SMA Western blot); conditions: Homo sapiens, Fibroblast, TGF-β 72 hours, 0.5 to 2 μM
Description: Primary human lung fibroblasts were stimulated for 72 hours with transforming growth factor beta (TGF-β) to induce their differentiation to an alpha smooth muscle actin (α-SMA) expressing activated myofibroblasts cell fate. […] The activin like kinase receptor (ALK5) inhibitor SB431542 was used as a positive control. Myofibroblast formation was evaluated by Western blot by examining changes in α-SMA levels.

ECC1 cells = experiment: IC50 assay with ECC1 endometrial cancer cells; conditions: Homo sapiens, ECC-1, 1 to 50 μM, read-out: half-maximal inhibition of viability
Description: as §4
ECC1 (well differentiated) and USPC1 (poorly differentiated) endometrial cancer cells were subjected to IC50 assays similar to Example 6 above. The cells were grown in concentrations of compound (5) ranging from 1 to 50 μM.

CC(C)=CCC/C(C)=C/CC/C(C)=C/CSc1ccccc1C1=NCCN1 [compound (5), 2-(2-{[(2E,6E)-3,7,11-trimethyldodeca-2,6,10-trien-1-yl]sulfanyl}phenyl)-4,5-dihydro-1H-imidazole]
U87MG cell proliferation compared to control (U87MG cells; 2.5 μM, media with 5% serum, five days (FIG. 2)): 56% | U87MG cell proliferation compared to control (U87MG cells; 25 μM, media with 5% serum, five days (FIG. 2)): 0% | U87MG cell proliferation compared to control (U87MG cells; 50 μM, five days, trypan blue cell count (FIG. 1)): 0% | IC50 (U87MG cells; Homo sapiens, U-87 MG, value quoted in Example 7, read-out: IC50 as determined on the U87MG cells): 2500 nM | PANC-1 cell proliferation compared to control (PANC-1 cells): 56% | toxicity to hematopoietic progenitor cells (CFU-GM, BFU-E, mixed colonies) [1]: not toxic | IC50 (JW16 cells): 2200 nM | EC50 [2]: ~1000 nM | IC50 (ECC1 cells): 4000 nM
